Test results published in ChEMBL document CHEMBL4507256 (2021).
pKi: −log10 of the molar value.

How the values were obtained:
[1] = tested on: Phosphatidylinositol 4,5-bisphosphate 3-kinase catalytic subunit alpha isoform (Homo sapiens), P42336 [E542K]; details: Compound concentration 1000.0 nM
[2] = biological target: Mitogen-activated protein kinase kinase kinase 10 (Homo sapiens) (UniProt Q02779); details: Compound concentration 1000.0 nM
[3] = biological target: Macrophage-stimulating protein receptor (Homo sapiens) (UniProt Q04912); details: Compound concentration 1000.0 nM
[4] = biological target: T1, Muscarinic acetylcholine receptor M4 (Homo sapiens) (UniProt P08173); details: Compound concentration 10.0 uM
T1 sequence (whole entry): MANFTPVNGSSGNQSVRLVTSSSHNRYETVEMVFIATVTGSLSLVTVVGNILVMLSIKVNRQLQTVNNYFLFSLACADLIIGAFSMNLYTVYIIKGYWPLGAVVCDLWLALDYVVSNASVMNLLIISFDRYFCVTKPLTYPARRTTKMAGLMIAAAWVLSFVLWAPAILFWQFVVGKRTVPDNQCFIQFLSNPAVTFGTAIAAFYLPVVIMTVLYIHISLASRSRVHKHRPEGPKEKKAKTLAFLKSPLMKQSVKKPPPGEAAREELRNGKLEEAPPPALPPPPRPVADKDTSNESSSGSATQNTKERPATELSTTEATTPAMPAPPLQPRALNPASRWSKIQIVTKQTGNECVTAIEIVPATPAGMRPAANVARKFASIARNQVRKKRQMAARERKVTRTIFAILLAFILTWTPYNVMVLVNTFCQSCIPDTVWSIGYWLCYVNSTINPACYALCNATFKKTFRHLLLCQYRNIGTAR

[5] = tested on: Tyrosine-protein kinase ABL1 (Homo sapiens), P00519 [Q252H]; details: Compound concentration 1000.0 nM
[6] = biological target: Tyrosine-protein kinase Yes (Homo sapiens) (UniProt P07947); details: Compound concentration 1000.0 nM
[7] = tested on: Receptor-type tyrosine-protein kinase FLT3 (Homo sapiens), P36888 [UNDEFINED MUTATION]; details: Compound concentration 1000.0 nM
[8] = biological target: T2, 5-hydroxytryptamine receptor 2C (Homo sapiens) (UniProt P28335); details: Compound concentration 10.0 uM
T2 sequence (whole entry): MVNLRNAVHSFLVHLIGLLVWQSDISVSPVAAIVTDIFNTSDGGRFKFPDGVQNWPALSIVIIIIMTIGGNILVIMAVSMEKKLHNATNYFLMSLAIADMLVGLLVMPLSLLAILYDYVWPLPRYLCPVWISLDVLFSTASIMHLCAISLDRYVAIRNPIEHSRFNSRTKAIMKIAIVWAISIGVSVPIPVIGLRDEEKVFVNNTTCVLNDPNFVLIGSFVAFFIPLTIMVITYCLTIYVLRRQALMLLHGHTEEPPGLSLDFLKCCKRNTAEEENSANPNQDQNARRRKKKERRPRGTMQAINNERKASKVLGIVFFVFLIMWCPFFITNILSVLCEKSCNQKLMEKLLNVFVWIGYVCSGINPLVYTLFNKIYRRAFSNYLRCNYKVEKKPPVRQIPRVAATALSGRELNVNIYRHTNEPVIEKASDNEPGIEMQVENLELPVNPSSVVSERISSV

[9] = biological target: SRSF protein kinase 1 (Homo sapiens) (UniProt Q96SB4); details: Compound concentration 1000.0 nM
[10] = biological target: Mitogen-activated protein kinase 8 (Homo sapiens) (UniProt P45983); details: Compound concentration 1000.0 nM
[11] = biological target: Muscle, skeletal receptor tyrosine-protein kinase (Homo sapiens) (UniProt O15146); details: Compound concentration 1000.0 nM
[12] = tested on: Epidermal growth factor receptor (Homo sapiens), P00533 [L858R]; details: Compound concentration 1000.0 nM
[13] = tested on: Mast/stem cell growth factor receptor Kit (Homo sapiens), P10721 [V559D,T670I]; details: Compound concentration 1000.0 nM
[14] = biological target: Ankyrin repeat and protein kinase domain-containing protein 1 (Homo sapiens) (UniProt Q8NFD2); details: Compound concentration 1000.0 nM
[15] = biological target: Sigma non-opioid intracellular receptor 1 (Homo sapiens, UniProt Q99720); experiment: GPCRScan assay: inhibition of Sigma 1; parameters: radioligand conc. used [nm] 4.0 – 5.0, parental cells HEKT; details: for pKi: read-out: Ki
[16] = biological target: Serine/threonine-protein kinase PAK 3 (Homo sapiens) (UniProt O75914); details: Compound concentration 1000.0 nM
[17] = biological target: Calcium/calmodulin-dependent protein kinase type II subunit delta (Homo sapiens) (UniProt Q13557); details: Compound concentration 1000.0 nM
[18] = biological target: Casein kinase II subunit alpha' (Homo sapiens) (UniProt P19784); details: Compound concentration 1000.0 nM
[19] = biological target: Ribosomal protein S6 kinase alpha-1 (Homo sapiens) (UniProt Q15418); details: Compound concentration 1000.0 nM
[20] = biological target: Interleukin-1 receptor-associated kinase 1 (Homo sapiens) (UniProt P51617); details: Compound concentration 1000.0 nM
[21] = biological target: SRSF protein kinase 3 (Homo sapiens) (UniProt Q9UPE1); details: Compound concentration 1000.0 nM
[22] = biological target: 5-hydroxytryptamine receptor 1A (Homo sapiens) (UniProt P08908); details: Compound concentration 10.0 uM
[23] = biological target: Serine/threonine-protein kinase TAO1 (Homo sapiens) (UniProt Q7L7X3); details: Compound concentration 1000.0 nM
[24] = biological target: Histamine H3 receptor (Homo sapiens) (UniProt Q9Y5N1); details: Compound concentration 10.0 uM
[25] = biological target: Dual specificity protein kinase CLK2 (Homo sapiens) (UniProt P49760); details: Compound concentration 1000.0 nM
[26] = biological target: Angiopoietin-1 receptor (Homo sapiens) (UniProt Q02763); details: Compound concentration 1000.0 nM
[27] = biological target: Atypical kinase COQ8A, mitochondrial (Homo sapiens) (UniProt Q8NI60); details: Compound concentration 1000.0 nM
[28] = biological target: RAC-beta serine/threonine-protein kinase (Homo sapiens) (UniProt P31751); details: Compound concentration 1000.0 nM
[29] = biological target: Dual specificity mitogen-activated protein kinase kinase 1 (Homo sapiens) (UniProt Q02750); details: Compound concentration 1000.0 nM
[30] = biological target: Receptor tyrosine-protein kinase erbB-2 (Homo sapiens) (UniProt P04626); details: Compound concentration 1000.0 nM
[31] = tested on: Epidermal growth factor receptor (Homo sapiens), P00533 [G719C]; details: Compound concentration 1000.0 nM
[32] = biological target: Casein kinase I isoform delta (Homo sapiens) (UniProt P48730); details: Compound concentration 1000.0 nM

Sigma non-opioid intracellular receptor 1, sequence (Q99720 whole entry): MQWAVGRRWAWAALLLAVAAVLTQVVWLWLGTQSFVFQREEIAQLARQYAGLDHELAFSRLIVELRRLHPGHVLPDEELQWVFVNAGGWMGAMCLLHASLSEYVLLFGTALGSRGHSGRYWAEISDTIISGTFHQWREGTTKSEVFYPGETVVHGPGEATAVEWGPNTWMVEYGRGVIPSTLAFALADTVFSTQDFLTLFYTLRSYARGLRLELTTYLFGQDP
Receptor-type tyrosine-protein kinase FLT3 (Homo sapiens), P36888 [UNDEFINED MUTATION], sequence (P36888 whole entry, looked up, change not shown): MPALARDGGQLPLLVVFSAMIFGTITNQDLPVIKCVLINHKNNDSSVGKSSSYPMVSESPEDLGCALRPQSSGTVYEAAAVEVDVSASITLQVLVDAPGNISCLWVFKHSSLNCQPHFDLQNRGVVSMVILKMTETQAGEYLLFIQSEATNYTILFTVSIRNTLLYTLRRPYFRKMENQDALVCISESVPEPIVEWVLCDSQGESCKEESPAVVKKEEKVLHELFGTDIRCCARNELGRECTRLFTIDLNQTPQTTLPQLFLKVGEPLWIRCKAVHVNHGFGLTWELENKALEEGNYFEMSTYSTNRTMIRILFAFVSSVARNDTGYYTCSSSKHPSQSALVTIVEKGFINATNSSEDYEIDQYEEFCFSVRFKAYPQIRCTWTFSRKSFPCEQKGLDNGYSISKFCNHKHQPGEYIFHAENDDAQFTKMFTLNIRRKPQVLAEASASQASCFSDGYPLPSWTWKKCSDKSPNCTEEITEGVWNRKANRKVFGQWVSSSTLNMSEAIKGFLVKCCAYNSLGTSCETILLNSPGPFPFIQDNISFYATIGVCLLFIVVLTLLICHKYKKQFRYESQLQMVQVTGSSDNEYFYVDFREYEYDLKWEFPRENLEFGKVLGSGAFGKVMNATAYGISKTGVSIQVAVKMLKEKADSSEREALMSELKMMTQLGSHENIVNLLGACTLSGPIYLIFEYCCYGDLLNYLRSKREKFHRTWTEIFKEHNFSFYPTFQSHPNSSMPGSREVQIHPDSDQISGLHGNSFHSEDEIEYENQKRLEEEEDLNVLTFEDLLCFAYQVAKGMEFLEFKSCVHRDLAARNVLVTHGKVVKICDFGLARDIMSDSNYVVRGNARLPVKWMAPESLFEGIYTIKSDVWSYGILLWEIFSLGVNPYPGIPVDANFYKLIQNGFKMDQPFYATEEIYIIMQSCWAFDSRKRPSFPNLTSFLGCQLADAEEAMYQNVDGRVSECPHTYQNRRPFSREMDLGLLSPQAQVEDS
Mitogen-activated protein kinase 8 (Homo sapiens), sequence (P45983 whole entry): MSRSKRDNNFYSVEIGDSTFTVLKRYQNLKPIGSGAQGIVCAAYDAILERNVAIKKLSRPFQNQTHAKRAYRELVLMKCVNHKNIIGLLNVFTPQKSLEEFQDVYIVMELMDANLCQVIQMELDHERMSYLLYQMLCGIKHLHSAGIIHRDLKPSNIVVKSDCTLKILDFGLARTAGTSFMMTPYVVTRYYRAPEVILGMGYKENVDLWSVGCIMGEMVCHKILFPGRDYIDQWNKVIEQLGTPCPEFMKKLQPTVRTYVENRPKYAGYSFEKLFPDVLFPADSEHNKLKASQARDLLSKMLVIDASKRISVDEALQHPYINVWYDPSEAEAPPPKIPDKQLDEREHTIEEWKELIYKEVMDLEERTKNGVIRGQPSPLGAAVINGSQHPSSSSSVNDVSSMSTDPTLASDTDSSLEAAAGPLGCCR
Serine/threonine-protein kinase PAK 3 (Homo sapiens), sequence (O75914 whole entry, looked up): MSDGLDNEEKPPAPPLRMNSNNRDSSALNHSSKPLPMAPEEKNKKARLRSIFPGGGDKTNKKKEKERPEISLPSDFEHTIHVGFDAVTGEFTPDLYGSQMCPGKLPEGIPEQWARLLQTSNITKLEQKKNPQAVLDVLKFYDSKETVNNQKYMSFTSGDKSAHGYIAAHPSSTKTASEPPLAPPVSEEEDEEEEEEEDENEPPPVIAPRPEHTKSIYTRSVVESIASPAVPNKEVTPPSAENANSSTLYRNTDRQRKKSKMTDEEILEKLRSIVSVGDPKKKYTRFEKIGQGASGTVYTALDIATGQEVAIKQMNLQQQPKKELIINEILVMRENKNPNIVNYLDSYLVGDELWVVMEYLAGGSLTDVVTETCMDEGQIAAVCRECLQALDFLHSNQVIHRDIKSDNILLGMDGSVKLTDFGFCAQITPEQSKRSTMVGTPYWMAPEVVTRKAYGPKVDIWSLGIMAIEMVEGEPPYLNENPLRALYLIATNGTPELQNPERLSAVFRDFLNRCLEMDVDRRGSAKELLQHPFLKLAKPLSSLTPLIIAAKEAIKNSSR
Muscle, skeletal receptor tyrosine-protein kinase (Homo sapiens), sequence (O15146 whole entry): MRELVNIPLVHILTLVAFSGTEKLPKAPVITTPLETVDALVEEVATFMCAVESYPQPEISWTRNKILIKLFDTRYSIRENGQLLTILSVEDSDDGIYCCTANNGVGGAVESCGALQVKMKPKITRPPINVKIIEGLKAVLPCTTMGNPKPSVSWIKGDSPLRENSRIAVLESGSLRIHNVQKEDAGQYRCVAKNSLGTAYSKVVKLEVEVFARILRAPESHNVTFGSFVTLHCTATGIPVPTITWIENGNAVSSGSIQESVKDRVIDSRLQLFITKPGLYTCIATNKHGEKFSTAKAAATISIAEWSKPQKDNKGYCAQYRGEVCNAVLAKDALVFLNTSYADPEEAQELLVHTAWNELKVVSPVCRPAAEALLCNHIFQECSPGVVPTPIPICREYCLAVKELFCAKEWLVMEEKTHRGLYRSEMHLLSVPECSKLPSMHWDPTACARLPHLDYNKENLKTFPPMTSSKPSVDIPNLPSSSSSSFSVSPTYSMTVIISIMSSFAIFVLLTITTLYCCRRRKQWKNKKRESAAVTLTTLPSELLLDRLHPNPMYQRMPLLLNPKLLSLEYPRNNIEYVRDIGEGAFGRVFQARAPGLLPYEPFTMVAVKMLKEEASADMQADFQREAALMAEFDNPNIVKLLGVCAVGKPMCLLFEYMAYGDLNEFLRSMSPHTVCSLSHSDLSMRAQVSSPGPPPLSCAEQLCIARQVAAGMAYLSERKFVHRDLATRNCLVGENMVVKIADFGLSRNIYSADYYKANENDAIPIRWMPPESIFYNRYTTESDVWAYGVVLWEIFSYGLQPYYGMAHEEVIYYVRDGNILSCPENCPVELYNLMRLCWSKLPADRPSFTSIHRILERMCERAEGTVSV
Casein kinase II subunit alpha' (Homo sapiens), sequence (P19784 whole entry, looked up): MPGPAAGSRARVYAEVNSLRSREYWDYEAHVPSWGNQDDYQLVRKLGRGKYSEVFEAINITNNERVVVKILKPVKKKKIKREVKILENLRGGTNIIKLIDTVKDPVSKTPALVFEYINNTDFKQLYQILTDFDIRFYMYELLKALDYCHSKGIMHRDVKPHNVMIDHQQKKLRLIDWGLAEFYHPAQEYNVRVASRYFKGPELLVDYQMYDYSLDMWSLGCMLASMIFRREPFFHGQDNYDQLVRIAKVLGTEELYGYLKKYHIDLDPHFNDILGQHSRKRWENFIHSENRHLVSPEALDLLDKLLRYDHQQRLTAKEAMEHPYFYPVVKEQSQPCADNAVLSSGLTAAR
Serine/threonine-protein kinase TAO1 (Homo sapiens), sequence (Q7L7X3 whole entry): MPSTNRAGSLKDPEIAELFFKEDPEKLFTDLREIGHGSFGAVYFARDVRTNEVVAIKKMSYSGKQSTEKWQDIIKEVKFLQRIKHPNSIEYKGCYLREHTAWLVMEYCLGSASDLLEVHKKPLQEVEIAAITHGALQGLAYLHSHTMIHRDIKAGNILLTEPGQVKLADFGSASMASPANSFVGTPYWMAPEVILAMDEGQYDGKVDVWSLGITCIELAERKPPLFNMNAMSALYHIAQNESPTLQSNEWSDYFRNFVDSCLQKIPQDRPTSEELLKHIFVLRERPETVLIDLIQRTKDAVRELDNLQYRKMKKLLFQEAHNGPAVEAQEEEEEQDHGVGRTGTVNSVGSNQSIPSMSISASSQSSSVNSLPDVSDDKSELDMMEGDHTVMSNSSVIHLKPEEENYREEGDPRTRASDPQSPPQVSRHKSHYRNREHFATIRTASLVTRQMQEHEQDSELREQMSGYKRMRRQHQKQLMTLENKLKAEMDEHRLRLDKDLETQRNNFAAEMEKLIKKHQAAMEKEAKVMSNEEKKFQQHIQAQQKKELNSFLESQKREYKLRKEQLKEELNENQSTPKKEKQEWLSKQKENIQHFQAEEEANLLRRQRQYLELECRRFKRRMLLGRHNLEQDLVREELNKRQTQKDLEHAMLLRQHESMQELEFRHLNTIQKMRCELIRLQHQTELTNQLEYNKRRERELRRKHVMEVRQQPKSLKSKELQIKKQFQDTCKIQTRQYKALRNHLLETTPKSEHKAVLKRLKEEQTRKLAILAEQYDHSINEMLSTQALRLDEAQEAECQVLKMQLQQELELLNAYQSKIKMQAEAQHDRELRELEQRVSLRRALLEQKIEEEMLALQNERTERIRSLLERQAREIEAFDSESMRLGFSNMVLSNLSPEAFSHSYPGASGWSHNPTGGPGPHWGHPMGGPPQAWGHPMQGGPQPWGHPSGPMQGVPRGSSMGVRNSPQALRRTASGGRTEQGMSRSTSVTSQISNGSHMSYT
Tyrosine-protein kinase Yes (Homo sapiens), sequence (P07947 2-543 limits assumed): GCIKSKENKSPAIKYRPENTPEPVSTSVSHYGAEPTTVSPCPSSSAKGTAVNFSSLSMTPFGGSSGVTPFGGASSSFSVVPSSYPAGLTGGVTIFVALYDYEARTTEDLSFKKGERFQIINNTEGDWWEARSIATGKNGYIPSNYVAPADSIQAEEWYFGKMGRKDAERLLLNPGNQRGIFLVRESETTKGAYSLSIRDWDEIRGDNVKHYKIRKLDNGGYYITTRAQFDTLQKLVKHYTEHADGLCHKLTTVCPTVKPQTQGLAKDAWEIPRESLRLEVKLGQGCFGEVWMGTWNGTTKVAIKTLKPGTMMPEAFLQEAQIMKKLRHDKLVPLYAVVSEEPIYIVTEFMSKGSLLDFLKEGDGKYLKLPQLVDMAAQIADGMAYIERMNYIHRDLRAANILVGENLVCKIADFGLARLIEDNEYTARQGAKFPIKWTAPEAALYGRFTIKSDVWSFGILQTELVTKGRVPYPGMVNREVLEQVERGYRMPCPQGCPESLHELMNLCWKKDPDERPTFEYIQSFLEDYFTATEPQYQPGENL

SMILES	residual activity [1] [%]	residual activity [2] [%]	residual activity [3] [%]	inhibition [4] [%]	residual activity [5] [%]	residual activity [6] [%]	residual activity [7] [%]	inhibition [8] [%]	residual activity [9] [%]	residual activity [10] [%]	residual activity [11] [%]	residual activity [12] [%]	residual activity [13] [%]	residual activity [14] [%]	pKi [15]	residual activity [16] [%]	residual activity [17] [%]	residual activity [18] [%]	residual activity [19] [%]	residual activity [20] [%]	also measured
CCC(=N\O)/C(C)=C/c1ccc(F)c(C)c1 [A-226]	54	75	100	15.4	100	100	100	27	100	100	100	100	100	100	6.28	63	100	73	100	100	residual activity [21]: 100%; inhibition [22]: 1.12%; residual activity [23]: 100%; inhibition [24]: -0.3%; residual activity [25]: 88%; residual activity [26]: 85%; residual activity [27]: 91%; residual activity [28]: 84%; residual activity [29]: 95%; residual activity [30]: 91%; residual activity [31]: 83%; residual activity [32]: 92%
CCC(=N\O)/C(C)=C/c1ccc(F)cc1 [A-079]	100	100	100	18.2	69	87	67	32.7	100	86	90	65	95	79	6.30	89	99	100	100	79	Ki ([15]; read-out: pKi (converted)): 457 nM; residual activity [21]: 91%; inhibition [22]: 6.81%; residual activity [23]: 100%; inhibition [24]: 4.32%; residual activity [25]: 78%; residual activity [26]: 89%; residual activity [27]: 78%; residual activity [28]: 88%; residual activity [29]: 95%; residual activity [30]: 83%; residual activity [31]: 64%; residual activity [32]: 81%
